In data set [1] the test system is J774.A1. The experiment in a line: Antiinflammatory activity against mouse J774A.1 cells assessed as inhibition of LPS-stimulated IL6 mRNA expression pretreated for 2 hrs followed by stimulated with LPS by RT-qPCR analysis. The conditions noted are these: dose 2.5-10 µM. It is filed as functional, cell-based. (In general: Real-time PCR tracks product formation cycle by cycle.)

Data set [2] in a line: Cmax in Sprague-Dawley rat at 10 mg/kg, po measured upto 24 hrs by UPLC-MS/MS analysis. Set-up: time < 24 hrs, dose 10 mg/kg, route po. It counts as ADME, organism-based. The note with it: in vivo.
Data set [3] is described as follows: Subacute toxicity in ICR mouse assessed as pathological change in lung at 500 to 100 mg/kg, IG measured for 10 days by hematoxylin and eosin dye based light microscopy. The note with it: in vivo, po, 240 h, dose 500-100 mg/kg, time 10 day. It is filed as organism-based.
Data set [4] has as its target T1, Mitogen-activated protein kinase kinase kinase 7 (Mus musculus) (UniProt Q62073).
T1 sequence (whole entry): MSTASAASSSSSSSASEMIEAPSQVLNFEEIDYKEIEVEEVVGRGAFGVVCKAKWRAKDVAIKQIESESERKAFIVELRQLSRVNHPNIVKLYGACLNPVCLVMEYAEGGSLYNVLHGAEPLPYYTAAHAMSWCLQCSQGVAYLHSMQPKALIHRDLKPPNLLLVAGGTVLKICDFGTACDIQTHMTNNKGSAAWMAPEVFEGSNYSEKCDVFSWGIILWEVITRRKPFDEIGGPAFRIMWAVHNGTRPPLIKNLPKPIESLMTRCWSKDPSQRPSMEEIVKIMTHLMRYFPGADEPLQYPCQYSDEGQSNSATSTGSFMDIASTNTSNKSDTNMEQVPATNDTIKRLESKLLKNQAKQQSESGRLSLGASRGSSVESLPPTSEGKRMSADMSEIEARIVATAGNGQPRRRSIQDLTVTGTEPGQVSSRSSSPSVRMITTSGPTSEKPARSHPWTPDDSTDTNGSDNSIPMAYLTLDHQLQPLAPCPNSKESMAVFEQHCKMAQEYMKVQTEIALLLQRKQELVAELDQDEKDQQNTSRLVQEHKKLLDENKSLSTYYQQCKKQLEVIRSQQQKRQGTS
As to the kind of experiment: Inhibition of TAK1 phosphorylation in mouse J774A.1 cells pretreated at 10 uM for 2 hrs followed by induced with LPS for 30 mins by Western blot analysis. The conditions noted are these: J774.1, time 2.5 hrs. It is filed as cell-based.

Data set [5] addresses Transcription factor p65 (Mus musculus) (UniProt Q04207). The experiment in a line: Inhibition of P65 phosphorylation in mouse J774A.1 cells pretreated at 10 uM for 2 hrs followed by induced with LPS for 30 mins by Western blot analysis. The note with it: J774.1, time 2.5 hrs. It is filed as cell-based.
Data set [6] has as its system J774.A1. As to the kind of experiment: Antiinflammatory activity against mouse J774A.1 cells assessed as inhibition of LPS-stimulated TNFalpha mRNA expression pretreated for 2 hrs followed by stimulated with LPS by RT-qPCR analysis. It counts as functional, cell-based. The conditions noted are these: dose 2.5-10 µM.
In data set [7] the test system is THP-1. The experiment in a line: Antiinflammatory activity against human THP-1 cells assessed as inhibition of LPS-stimulated IL6 release measured after 30 mins by ELISA. It counts as functional, cell-based. The note with it: THP-1, 0.5 h. On the technique in general: ELISA stands for enzyme-linked immunosorbent assay.
Data set [8] is described as follows: Cytotoxicity against mouse J774A.1 cells assessed as cell viability at 10 uM measured after 24 hrs incubation by MTT assay. It counts as toxicity, cell-based, J774.A1. The note with it: read-out: Activity. A general note: Formazan colour is commonly taken as a measure of viable cells.
A short description of data set [9]: AUC (0 to t) in Sprague-Dawley rat at 10 mg/kg, iv measured upto 24 hrs by UPLC-MS/MS analysis. It counts as ADME, organism-based. The note with it: in vivo. Set-up: dose 10 mg/kg, time < 24 hrs, route iv.
The subject of data set [10] is J774.A1. The experiment in a line: Antiinflammatory activity against mouse J774A.1 cells assessed as inhibition of LPS-stimulated IL6 release measured after 30 mins by ELISA. It counts as functional, cell-based. The conditions noted are these: J774.A1, 0.5 h.
The subject of data set [11] is Mus musculus. The experiment in a line: Antiinflammatory activity against LPS-induced acute lung injury C57 mouse model assessed as decrease in LPS-induced IL-6 level in blood at 20 mg/kg, po thrice at 12 hrs interval. It is filed as functional, organism-based.
The target in data set [12] is Mitogen-activated protein kinase 9 (Homo sapiens, UniProt P45984). The experiment in a line: Inhibition of JNK2 (unknown origin) assessed as inhibition rate at 10 uM by SPR analysis relative to control.
The subject of data set [13] is Mus musculus. As to the kind of experiment: Antiinflammatory activity against LPS-induced acute lung injury C57 mouse model assessed as decrease in LPS-induced IL-6 level in alveolar lavage fluid at 20 mg/kg, po thrice at 12 hrs interval. It counts as functional, organism-based. The conditions noted are these: Bronchoalveolar lavage.
The test system of data set [14] is THP-1. The experiment in a line: Antiinflammatory activity against human THP-1 cells assessed as inhibition of LPS-stimulated TNFalpha release measured after 30 mins by ELISA. The conditions noted are these: 0.5 h. It is filed as functional.
A short description of data set [15]: Subacute toxicity in ICR mouse assessed as pathological change in kidney at 500 to 100 mg/kg, IG measured for 10 days by hematoxylin and eosin dye based light microscopy. It is filed as organism-based. The note with it: in vivo, po, 240 h, dose 500-100 mg/kg, time 10 day.

Activity calls are given as the source filed them. No cut-off for these calls is given here.

Sequence of Transcription factor p65 (Mus musculus) (Q04207 whole entry): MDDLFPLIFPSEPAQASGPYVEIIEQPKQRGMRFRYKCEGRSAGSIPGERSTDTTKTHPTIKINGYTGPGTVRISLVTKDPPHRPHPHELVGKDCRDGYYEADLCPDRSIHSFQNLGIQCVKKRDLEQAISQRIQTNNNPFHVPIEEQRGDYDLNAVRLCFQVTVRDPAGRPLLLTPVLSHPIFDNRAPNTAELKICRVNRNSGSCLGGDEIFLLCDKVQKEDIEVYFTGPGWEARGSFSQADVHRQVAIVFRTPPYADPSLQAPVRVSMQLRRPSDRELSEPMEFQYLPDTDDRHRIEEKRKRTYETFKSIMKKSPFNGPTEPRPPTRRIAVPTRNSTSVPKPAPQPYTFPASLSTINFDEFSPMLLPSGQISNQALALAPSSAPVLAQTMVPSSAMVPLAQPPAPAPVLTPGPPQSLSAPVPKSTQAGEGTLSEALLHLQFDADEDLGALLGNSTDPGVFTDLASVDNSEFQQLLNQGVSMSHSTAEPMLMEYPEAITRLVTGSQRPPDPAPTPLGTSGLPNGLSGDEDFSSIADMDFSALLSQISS
Sequence of Mitogen-activated protein kinase 9 (P45984 whole entry, looked up): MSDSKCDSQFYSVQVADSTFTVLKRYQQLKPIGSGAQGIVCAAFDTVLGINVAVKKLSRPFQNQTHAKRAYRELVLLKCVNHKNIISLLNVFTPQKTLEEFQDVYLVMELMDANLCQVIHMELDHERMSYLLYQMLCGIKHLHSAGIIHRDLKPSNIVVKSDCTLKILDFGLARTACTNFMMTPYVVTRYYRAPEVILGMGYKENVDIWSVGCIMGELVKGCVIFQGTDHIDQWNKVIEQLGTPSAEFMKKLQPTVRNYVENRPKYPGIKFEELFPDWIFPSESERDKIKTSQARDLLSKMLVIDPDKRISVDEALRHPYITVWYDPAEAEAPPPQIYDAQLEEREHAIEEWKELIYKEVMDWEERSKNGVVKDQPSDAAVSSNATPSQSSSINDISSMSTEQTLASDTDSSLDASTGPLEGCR

As usually defined, the Cmax is the maximum level reached in the sampled fluid or tissue. The term inhibition denotes the change of the read-out against control, counted positive when it falls. In general, IC50 refers to the concentration that gives 50% inhibition. For the compound `COc1cc2nccc(Oc3ccc(NC(=O)c4nn(-c5ccc(C)cc5)c(=O)cc4C)cc3)c2cc1OC`, the Activity result with J774.A1 [1] was “Dose-Dependent Effect”; in data set [3], “Non-Toxic”; in the data set with J774.A1 [6], “Dose-Dependent Effect”; in data set [15], “Non-Toxic”. For the same compound, the concentration in [2] peaked (Cmax) at 1.87 µg/mL. The inhibition result in data set [4] and in [5] was “Active” in each case. Further, the IC50 was 0.22 µM with THP-1 [7], 7.11 µM in the data set with J774.A1 [10] and 1.76 µM in the data set on THP-1 [14]. In data set [8], the viability at 24 h, 10 µM was > 80%. The AUCt in data set [9] was determined as 2.995673 µg·h/mL. The result in the data set with Mus musculus [11] and in the data set on Mus musculus [13] was Active. Moreover, in data set [12], the inhibition is 64.8%.

These data come from ChEMBL document CHEMBL5321290, “Discovery of the Diphenyl 6-Oxo-1,6-dihydropyridazine-3-carboxylate/carboxamide Analogue J27 for the Treatment of Acute Lung Injury and Sepsis by Targeting JNK2 and Inhibiting the JNK2-NF-κB/MAPK Pathway” (J Med Chem, 2023).
